Assay results taken from PubChem BioAssay AID2060609 (Molecular Pharmacology Branch, DTP, NCI, 2025).
Values joined by “and” are separate entries in the source; they are usually repeats but may differ in a detail not shown here. Equal entries are not always repeated. Each block holds one molecule with its values, some of them ahead of it.

System: 855422-203-R-J1-PDC complex spheroids, viability
Experiment: Anticancer human tumor 855422-203-R-J1-PDC patient-derived bladder carcinoma cell line growth inhibition [CLK]
Details: for viability, T/C: stronger effect = lower value; for IC50: curve of compound
From the text: A high-throughput screen of multi-cell type tumor spheroids was designed to identify active combinations of […] and targeted small molecules. Complex spheroids include a stromal component modeled by human endothelial cells (HUVEC) and fibroblasts modeled by human mesenchymal stem cells (MSCs). The concentration ranges selected for each drug and investigational agent were based upon clinically achievable concentrations if the clinical Cmax of the agent was known.
Compounds. The drugs and investigational agents: cirtuvivint (SM08502; NSC835563), CC-671 (NSC850746), vemurafenib (NSC761431), tapotoclax (NSC804041), sotorasib (NSC818433), adagrasib (NSC831453), MRTX-1133 (NSC836407), BAY2416964 (NSC825713), copanlisib (NSC816437), inavolisib (NSC800729), abemaciclib (NSC768073), osimertinib (NSC779217), entinostat (NSC756642), eltanexor (KPT-8602, NSC794443), venetoclax (NSC766270), ceralasertib (NSC777638), bortezomib (NSC756655), olaparib (NSC753686), talazoparib (NSC767125), alisertib (NSC759677), peposertib (NSC802822), gemcitabine (NSC613327), 5-fluorouracil (NSC19893), SN-38 (NSC673596), oxaliplatin (NSC266046), paclitaxel (NSC125973), and doxorubicin (NSC123127), were obtained from the National Cancer Institute (NCI) Developmental Therapeutics Program Chemical Repository. The FDA-approved anticancer drug set is available from the Developmental Therapeutics Program at https://dtp.cancer.gov/organization/dscb/obtaining/available plates.htm. […] The stock solutions were prepared in dimethyl sulfoxide (DMSO, Sigma-Aldrich, St. Louis, MO, cat. D2650), except for the platinum complexes which were prepared in saline (Quality Biological, Gaithersburg, MD, cat. 114-055-101), at 800-fold the tested concentration and stored at -70 degrees C prior to their use. All drugs and investigational agents were tested over a range starting from a high concentration at or near the clinical Cmax and decreasing in half-log increments. If the clinical Cmax for an agent had not been determined, the highest concentration tested was 10 microM.
Cell Culture. All cells were maintained in an incubator at 37 degrees C and 5% CO2 with 95% humidity. The PDC lines were cultured according to standard operating procedures established by the NCI PDMR. Briefly, all PDCs were thawed and cultured in Matrigel-coated flasks prepared with a working solution of 1X Ham's F-12 nutrient mix, without supplementation (Invitrogen, Waltham, MA, cat. 11765054), 100 U/mL penicillin-streptomycin (Invitrogen, cat. 15140122), and 2.5% Matrigel (Corning Inc., Corning, NY, cat. 354248) for the first three passages. The 947758-054-R-J2-PDC line was cultured in 6B/Colon 1A media, which includes advanced DMEM/F-12 (Thermo Fisher Scientific, cat. 12634028), 10 mM HEPES (Thermo Fisher Scientific, cat. 15630080), 1X GlutaMAX supplement (Thermo Fisher Scientific, cat. 35050061), 0.1 mg/mL primocin (InvivoGen, cat. ant-pm-2), 10% defined fetal bovine serum, heat inactivated (HyClone Laboratories Inc., cat. SH30070.03HI), 1.25 mM N-Acetyl-L-cysteine (Sigma-Aldrich, cat. A9165), 10 mM nicotinamide (Sigma-Aldrich, cat. N0636), 1X B-27 supplement (Thermo Fisher Scientific, cat. 17504044), 1X N-2 supplement (Thermo Fisher Scientific, cat. 17502048), and 10 microM Y-27632 dihydrochloride (Tocris Bioscience, cat. 1254). The 876862-298-R-J1-PDC was cultured in 6E media, which includes all 6B/Colon 1A media components plus 50% L-WRN conditioned media (ATCC, cat. CRL-3276), 50 ng/mL recombinant human EGF recombinant protein (hEGF; Thermo Fisher Scientific, cat. PHG0311), 10 ng/mL recombinant human fibroblast growth factor 10 (hGFG-10; PeproTech, cat. 100-26), 1 ng/mL recombinant human fibroblast growth factor 2 (hFGF-2; PeproTech, cat. 100-18B), and 1 µM prostaglandin E2 (PGE2; Tocris, cat. 2296). The 227483-062-R1-J1-PDC line was cultured in Panc media, containing all 6E components except hFGF-2, with the addition of 500 nM SB-431542 (Selleckchem, cat. S1067) and 10 nM gastrin (Tocris, cat. 3006). […]
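Also: spheroids exposed to drugs for seven days before readout.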
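For viability, T/C in this document: 100% = DMSO vehicle control wells.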

- IC50: > 10 µM
SMILES: C=CC(=O)N1CCN(c2nc(=O)n(-c3c(C)ccnc3C(C)C)c3nc(-c4c(O)cccc4F)c(F)cc23)C(C)C1 (configuration not stated)
- viability, T/C (compound 0.0316 µM): 91.5% and 117%
- viability, T/C (compound 0.1 µM): 95.7% and 105%
- viability, T/C (compound 0.316 µM): 121% and 122%
- viability, T/C (compound 1 µM): 131% and 149%
- viability, T/C (compound 3.16 µM): 174% and 201%
- viability, T/C (compound 10 µM): 161% and 180%

- IC50: > 10 µM
SMILES: CC(CO)NC(=O)c1cc(-c2ccc(Cl)cc2)nn(-c2cnn(C)c2)c1=O (configuration not stated)
- viability, T/C (compound 0.0316 µM): 92.5% and 94.5%
- viability, T/C (compound 0.1 µM): 89.1% and 85.5%
- viability, T/C (compound 0.316 µM): 94.6% and 92.7%
- viability, T/C (compound 1 µM): 93.5% and 99.6%
- viability, T/C (compound 3.16 µM): 110% and 99.5%
- viability, T/C (compound 10 µM): 82.2% and 94%

- IC50: 5.93 µM and 6.04 µM
SMILES: CCCS(=O)(=O)Nc1ccc(F)c(C(=O)c2c[nH]c3ncc(-c4ccc(Cl)cc4)cc23)c1F
- viability, T/C (compound 0.0316 µM): 101% and 114%
- viability, T/C (compound 0.1 µM): 98.5% and 97.8%
- viability, T/C (compound 0.316 µM): 112% and 118%
- viability, T/C (compound 1 µM): 107% and 111%
- viability, T/C (compound 3.16 µM): 109% and 119%
- viability, T/C (compound 10 µM): 3.67% and 1.89%

Second part, the molecule before the results:

SMILES: C#Cc1c(F)ccc2cc(O)cc(-c3ncc4c(N5CC6CCC(C5)N6)nc(OCC56CCCN5CC(F)C6)nc4c3F)c12 (configuration not stated)
- viability, T/C (compound 0.0316 µM): 118% and 106%
- viability, T/C (compound 0.1 µM): 92.7% and 95.3%
- viability, T/C (compound 0.316 µM): 117% and 113%
- viability, T/C (compound 1 µM): 114% and 97.7%
- viability, T/C (compound 3.16 µM): 119% and 104%
- viability, T/C (compound 10 µM): 98.7% and 112%
- IC50: > 10 µM

SMILES: C=C(F)C(=O)N1CCN(c2nc(OCC3CCCN3C)nc3c2CCN(c2cccc4cccc(Cl)c24)C3)CC1CC#N (configuration not stated)
- viability, T/C (compound 0.0316 µM): 94.2% and 121%
- viability, T/C (compound 0.1 µM): 111% and 115%
- viability, T/C (compound 0.316 µM): 93.3% and 113%
- viability, T/C (compound 1 µM): 111% and 123%
- viability, T/C (compound 3.16 µM): 11.1% and 26%
- viability, T/C (compound 10 µM): 1.51% and 0.48%
- IC50: 1.94 µM and 2.34 µM

SMILES: C=CC(=O)Nc1cc(Nc2nccc(-c3cn(C)c4ccccc34)n2)c(OC)cc1N(C)CCN(C)C
- viability, T/C (compound 0.000949 µM): 112% and 158%
- viability, T/C (compound 0.003 µM): 91.3% and 98.2%
- viability, T/C (compound 0.00949 µM): 107% and 117%
- viability, T/C (compound 0.03 µM): 99.9% and 90.9%
- viability, T/C (compound 0.0949 µM): 108% and 118%
- viability, T/C (compound 0.3 µM): 101% and 98.4%
- IC50: > 0.3 µM

SMILES: CC(=O)O[C@H]1C(=O)[C@@]2(C)[C@H]([C@H](OC(=O)c3ccccc3)[C@]3(O)C[C@H](OC(=O)[C@H](O)[C@@H](NC(=O)c4ccccc4)c4ccccc4)C(C)=C1C3(C)C)[C@]1(OC(C)=O)CO[C@@H]1C[C@@H]2O
- viability, T/C (compound 0.0316 µM): 7.73% and 9%
- viability, T/C (compound 0.1 µM): 9.43% and 8.68%
- viability, T/C (compound 0.316 µM): 9.33% and 9.1%
- viability, T/C (compound 1 µM): 8.48% and 7.37%
- viability, T/C (compound 3.16 µM): 8.93% and 7.1%
- viability, T/C (compound 10 µM): 9.93% and 9.02%
- IC50: < 0.0316 µM

SMILES: CC(C)CC(NC(=O)C(Cc1ccccc1)NC(=O)c1cnccn1)B(O)O (configuration not stated)
- viability, T/C (compound 0.000949 µM): 2.8% and 2.47%
- viability, T/C (compound 0.003 µM): 0.77% and 0.18%
- viability, T/C (compound 0.00949 µM): 0.19% and 0.16%
- viability, T/C (compound 0.03 µM): 0.36% and 0.17%
- viability, T/C (compound 0.0949 µM): 0.46% and 0.15%
- viability, T/C (compound 0.3 µM): 0.24% and 0.15%
- IC50: < 0.000949 µM

SMILES: CC(Nc1ccc2c(c1)OCCn1cc(N3C(=O)OCC3C(F)F)nc1-2)C(N)=O (configuration not stated)
- viability, T/C (compound 0.0316 µM): 94.9% and 74%
- viability, T/C (compound 0.1 µM): 71% and 67.6%
- viability, T/C (compound 0.316 µM): 50.9% and 45.7%
- viability, T/C (compound 1 µM): 28.4% and 20.6%
- viability, T/C (compound 3.16 µM): 21.2% and 20.3%
- viability, T/C (compound 10 µM): 16.1% and 11.5%
- IC50: 0.294 µM and 0.249 µM

SMILES: CC1(C)CCC(CN2CCN(c3ccc(C(=O)NS(=O)(=O)c4ccc(NCC5CCOCC5)c([N+](=O)[O-])c4)c(Oc4cnc5[nH]ccc5c4)c3)CC2)=C(c2ccc(Cl)cc2)C1
- viability, T/C (compound 0.0316 µM): 107% and 106%
- viability, T/C (compound 0.1 µM): 90.2% and 119%
- viability, T/C (compound 0.316 µM): 117% and 124%
- viability, T/C (compound 1 µM): 103% and 118%
- viability, T/C (compound 3.16 µM): 159% and 150%
- viability, T/C (compound 10 µM): 1.83% and 3.19%
- IC50: 6.14 µM and 6.39 µM

SMILES: CC1COCCN1c1cc(C2(S(C)(=N)=O)CC2)nc(-c2ccnc3[nH]ccc23)n1 (configuration not stated)
- viability, T/C (compound 0.0316 µM): 127% and 114%
- viability, T/C (compound 0.1 µM): 108% and 101%
- viability, T/C (compound 0.316 µM): 115% and 113%
- viability, T/C (compound 1 µM): 93.2% and 103%
- viability, T/C (compound 3.16 µM): 32.1% and 23.6%
- viability, T/C (compound 10 µM): 11.2% and 8.31%
- IC50: 2.26 µM and 2.16 µM
